Measured values published in ChEMBL document CHEMBL4196087 (Eur J Med Chem, 2018).

Key:
MCF7 = assay: Growth inhibition of human MCF7 cells at 10^-5 M incubated for 48 hrs by sulforhodamine B assay relative to control; assay type: functional; conditions: MCF7, 48 h, read-out: GI
MDA-MB-468 [1] = assay: Potency index, ratio of doxorubicin IC50 to compound IC50 for antiproliferative activity against human MDA-MB-468 cells; assay type: functional
MOLT-4 = assay: Growth inhibition of human MOLT4 cells at 10^-5 M incubated for 48 hrs by sulforhodamine B assay relative to control; assay type: functional; conditions: MOLT-4, 48 h, read-out: GI
MDA-MB-468 [2] = assay: Antiproliferative activity against human MDA-MB-468 cells after 48 hrs by SRB assay; assay type: functional; conditions: MDA-MB-468, 48 h, read-out: LC50 (the source's name)
Escherichia coli = assay: Antibacterial activity against Escherichia coli at 37 degC measured after 24 hrs by agar disc diffusion method; assay type: functional
K562 = assay: Growth inhibition of human K562 cells at 10^-5 M incubated for 48 hrs by sulforhodamine B assay relative to control; assay type: functional; conditions: K562, 48 h, read-out: GI
IGROV-1 = assay: Growth inhibition of human IGROV1 cells at 10^-5 M incubated for 48 hrs by sulforhodamine B assay relative to control; assay type: functional; conditions: IGROV-1, 48 h, read-out: GI
Pseudomonas aeruginosa = assay: Antibacterial activity against Pseudomonas aeruginosa at 37 degC measured after 24 hrs by agar disc diffusion method; assay type: functional
T47D = assay: Growth inhibition of human T47D cells at 10^-5 M incubated for 48 hrs by sulforhodamine B assay relative to control; assay type: functional; conditions: read-out: GI
Staphylococcus aureus = assay: Antibacterial activity against Staphylococcus aureus at 37 degC measured after 24 hrs by agar disc diffusion method; assay type: functional
MDA-MB-468 [3] = assay: Growth inhibition of human MDA-MB-468 cells at 10^-5 M incubated for 48 hrs by sulforhodamine B assay relative to control; assay type: functional; conditions: MDA-MB-468, 48 h, read-out: GI
MDA-MB-231 = assay: Growth inhibition of human MDA-MB-231 cells at 10^-5 M incubated for 48 hrs by sulforhodamine B assay relative to control; assay type: functional; conditions: MDA-MB-231, 48 h, read-out: GI
MDA-MB-468 [4] = assay: Antiproliferative activity against human MDA-MB-468 cells after 48 hrs by MTT assay; assay type: functional, cell-based; conditions: MDA-MB-468, 48 h
SK-MEL-5 = assay: Growth inhibition of human SK-MEL-5 cells at 10^-5 M incubated for 48 hrs by sulforhodamine B assay relative to control; assay type: functional; conditions: SK-MEL-5, 48 h, read-out: GI
A498 = assay: Growth inhibition of human A498 cells at 10^-5 M incubated for 48 hrs by sulforhodamine B assay relative to control; assay type: functional; conditions: A498, 48 h, read-out: GI
RPMI-8226 = assay: Growth inhibition of human RPMI8226 cells at 10^-5 M incubated for 48 hrs by sulforhodamine B assay relative to control; assay type: functional; conditions: RPMI-8226, 48 h, read-out: GI
HOP-62 = assay: Growth inhibition of human HOP62 cells at 10^-5 M incubated for 48 hrs by sulforhodamine B assay relative to control; assay type: functional; conditions: HOP-62, 48 h, read-out: GI
Bacillus subtilis = assay: Antibacterial activity against Bacillus subtilis at 37 degC measured after 24 hrs by agar disc diffusion method; assay type: functional
HL-60(TB) = assay: Growth inhibition of human HL-60(TB) cells at 10^-5 M incubated for 48 hrs by sulforhodamine B assay relative to control; assay type: functional; conditions: HL-60, 48 h, read-out: GI
UO-31 [5] = assay: Potency index, ratio of doxorubicin IC50 to compound IC50 for antiproliferative activity against human UO31 cells; assay type: functional
HOP-92 = assay: Growth inhibition of human HOP92 cells at 10^-5 M incubated for 48 hrs by sulforhodamine B assay relative to control; assay type: functional; conditions: HOP-92, 48 h, read-out: GI
SNB-75 = assay: Growth inhibition of human SNB75 cells at 10^-5 M incubated for 48 hrs by sulforhodamine B assay relative to control; assay type: functional; conditions: SNB-75, 48 h, read-out: GI
UO-31 [6] = assay: Antiproliferative activity against human UO31 cells after 48 hrs by SRB assay; assay type: functional; conditions: UO-31, 48 h
SF-539 = assay: Growth inhibition of human SF539 cells at 10^-5 M incubated for 48 hrs by sulforhodamine B assay relative to control; assay type: functional; conditions: SF-539, 48 h, read-out: GI
PC-3 = assay: Growth inhibition of human PC3 cells at 10^-5 M incubated for 48 hrs by sulforhodamine B assay relative to control; assay type: functional; conditions: PC-3, 48 h, read-out: GI
UO-31 [7] = assay: Growth inhibition of human UO31 cells at 10^-5 M incubated for 48 hrs by sulforhodamine B assay relative to control; assay type: functional; conditions: UO-31, 48 h, read-out: GI
CCRF-CEM = assay: Growth inhibition of human CCRF-CEM cells at 10^-5 M incubated for 48 hrs by sulforhodamine B assay relative to control; assay type: functional; conditions: read-out: GI
NCI-H226 = assay: Growth inhibition of human NCI-H226 cells at 10^-5 M incubated for 48 hrs by sulforhodamine B assay relative to control; assay type: functional; conditions: NCI-H226, 48 h, read-out: GI
UO-31 [8] = assay: Antiproliferative activity against human UO31 cells after 48 hrs by MTT assay; assay type: functional, cell-based; conditions: UO-31, 48 h
LOX IMVI = assay: Growth inhibition of human LOXIMVI cells at 10^-5 M incubated for 48 hrs by sulforhodamine B assay relative to control; assay type: functional; conditions: read-out: GI
UO-31 [9] = assay: Induction of apoptosis in human UO31 cells assessed as caspase-3 activation by measuring active caspase-3 level at 0.75 uM by […] (reference value: 66 pg/ml); assay type: functional
UO-31 [10] = assay: Cell cycle arrest in human UO31 cells assessed as accumulation at G2/M phase at 0.75 uM after 24 hrs by propidium iodide staining based flow cytometry relative to control; assay type: functional
UO-31 [11] = assay: Cell cycle arrest in human UO31 cells assessed as accumulation at pre-G1 phase at 0.75 uM after 24 hrs by propidium iodide staining based flow cytometry relative to control; assay type: functional
UO-31 [12] = assay: Cell cycle arrest in human UO31 cells assessed as accumulation at G2 phase at 0.75 uM after 24 hrs by propidium iodide staining based flow cytometry (reference value: 5.49%); assay type: functional
UO-31 [13] = assay: Cell cycle arrest in human UO31 cells assessed as accumulation at S phase at 0.75 uM after 24 hrs by propidium iodide staining based flow cytometry (reference value: 24.47%); assay type: functional
DNA topoisomerase 2-beta [14] = molecular target: T1, DNA topoisomerase 2-beta (Homo sapiens, UniProt Q02880); assay: Potency index, ratio of etoposide IC50 to compound IC50 for inhibition of human topoisomerase-2B
T1 sequence (Q02880 whole entry): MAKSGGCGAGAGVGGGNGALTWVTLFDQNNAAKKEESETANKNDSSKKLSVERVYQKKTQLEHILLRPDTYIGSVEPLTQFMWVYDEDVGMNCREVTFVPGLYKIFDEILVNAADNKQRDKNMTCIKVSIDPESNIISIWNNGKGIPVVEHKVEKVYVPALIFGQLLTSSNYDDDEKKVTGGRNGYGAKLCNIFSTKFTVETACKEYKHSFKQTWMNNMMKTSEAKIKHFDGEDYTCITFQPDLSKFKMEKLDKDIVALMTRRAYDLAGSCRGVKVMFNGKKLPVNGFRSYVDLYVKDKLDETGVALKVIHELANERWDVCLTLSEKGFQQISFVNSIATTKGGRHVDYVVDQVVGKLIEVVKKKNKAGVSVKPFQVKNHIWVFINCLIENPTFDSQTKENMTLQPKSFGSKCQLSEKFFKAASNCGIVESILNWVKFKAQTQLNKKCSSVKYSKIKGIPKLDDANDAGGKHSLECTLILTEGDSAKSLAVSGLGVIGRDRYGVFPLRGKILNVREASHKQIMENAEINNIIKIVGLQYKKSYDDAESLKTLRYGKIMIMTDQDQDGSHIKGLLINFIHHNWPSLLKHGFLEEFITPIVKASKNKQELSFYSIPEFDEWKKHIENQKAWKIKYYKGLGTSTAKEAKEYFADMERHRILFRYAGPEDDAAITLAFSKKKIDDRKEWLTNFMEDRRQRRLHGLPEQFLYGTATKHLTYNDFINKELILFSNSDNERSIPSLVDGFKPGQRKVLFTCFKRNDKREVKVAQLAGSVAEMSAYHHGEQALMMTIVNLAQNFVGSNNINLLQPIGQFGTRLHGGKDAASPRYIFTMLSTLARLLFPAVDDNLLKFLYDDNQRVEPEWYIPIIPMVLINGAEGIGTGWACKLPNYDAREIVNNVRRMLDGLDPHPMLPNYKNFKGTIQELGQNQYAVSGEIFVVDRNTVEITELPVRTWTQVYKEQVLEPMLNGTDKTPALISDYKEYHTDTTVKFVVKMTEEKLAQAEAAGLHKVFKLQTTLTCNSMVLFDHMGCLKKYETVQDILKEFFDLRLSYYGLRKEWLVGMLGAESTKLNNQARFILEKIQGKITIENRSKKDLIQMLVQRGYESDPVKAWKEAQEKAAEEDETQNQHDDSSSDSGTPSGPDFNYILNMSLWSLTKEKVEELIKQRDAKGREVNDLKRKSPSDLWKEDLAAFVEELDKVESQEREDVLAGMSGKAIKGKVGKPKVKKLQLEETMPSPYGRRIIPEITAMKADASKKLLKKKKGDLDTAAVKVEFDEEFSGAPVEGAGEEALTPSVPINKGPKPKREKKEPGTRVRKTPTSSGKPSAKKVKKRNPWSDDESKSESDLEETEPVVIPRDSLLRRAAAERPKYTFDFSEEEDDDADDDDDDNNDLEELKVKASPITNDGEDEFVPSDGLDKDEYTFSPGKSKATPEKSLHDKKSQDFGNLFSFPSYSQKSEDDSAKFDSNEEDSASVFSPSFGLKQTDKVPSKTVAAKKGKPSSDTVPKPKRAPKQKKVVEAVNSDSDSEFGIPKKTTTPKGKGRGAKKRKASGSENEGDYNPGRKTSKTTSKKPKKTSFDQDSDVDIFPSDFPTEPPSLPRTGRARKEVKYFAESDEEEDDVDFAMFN

UO-31 [15] = assay: Induction of apoptosis in human UO31 cells assessed as live cells at 0.75 uM after 24 hrs by Annexin V-FITC/propidium iodide staining based low cytometry (reference value: 97.84%); assay type: functional
DNA topoisomerase 2-beta [16] = molecular target: T1, DNA topoisomerase 2-beta; assay: Inhibition of human topoisomerase-2B after 2 hrs by ELISA
UO-31 [17] = assay: Cell cycle arrest in human UO31 cells assessed as accumulation at G1 phase at 0.75 uM after 24 hrs by propidium iodide staining based flow cytometry (reference value: 69.55%); assay type: functional
UO-31 [18] = assay: Induction of apoptosis in human UO31 cells assessed as necrotic cells at 0.75 uM after 24 hrs by Annexin V-FITC/propidium iodide staining based flow cytometry (reference value: 0.08%); assay type: functional
DNA topoisomerase 2-beta [19] = molecular target: T1, DNA topoisomerase 2-beta; assay: Potency index, ratio of doxorubicin IC50 to compound IC50 for inhibition of human topoisomerase-2B
DNA topoisomerase 2-beta [20] = molecular target: T1, DNA topoisomerase 2-beta; assay: Potency index, ratio of amsacrine IC50 to compound IC50 for inhibition of human topoisomerase-2B
UO-31 [21] = assay: Induction of apoptosis in human UO31 cells assessed as late apoptotic cells at 0.75 uM after 24 hrs by Annexin V-FITC/propidium iodide staining based flow cytometry (reference value: 0.22%); assay type: functional
UO-31 [22] = assay: Cell cycle arrest in human UO31 cells assessed as apoptotic cells at 0.75 uM after 24 hrs by propidium iodide staining based flow cytometry (reference value: 0.49%); assay type: functional
UO-31 [23] = assay: Induction of apoptosis in human UO31 cells assessed as early apoptotic cells at 0.75 uM after 24 hrs by Annexin V-FITC/propidium iodide staining based flow cytometry (reference value: 0.19%); assay type: functional

## O=C(CN1CCN(c2cc3c(cc2F)c(=O)c(C(=O)O)cn3C2CC2)CC1)N/N=C/c1ccccc1C(F)(F)F
MCF7
  inhibition of growth at 10 µM: < 20%
MDA-MB-468 [1]
  Ratio IC50: 1.3
MOLT-4
  inhibition of growth at 10 µM: 27.3%
MDA-MB-468 [2]
  CC50: 15.6 µM
Escherichia coli
  diameter of the inhibition zone (DIZ): 26 mm
K562
  inhibition of growth at 10 µM: 21.2%
IGROV-1
  inhibition of growth at 10 µM: 33.4%
Pseudomonas aeruginosa
  diameter of the inhibition zone (DIZ): 25 mm
T47D
  inhibition of growth at 10 µM: 25.1%
Staphylococcus aureus
  diameter of the inhibition zone (DIZ): 25 mm
MDA-MB-468 [3]
  inhibition of growth at 10 µM: 34.7%
MDA-MB-231
  inhibition of growth at 10 µM: 23.6%
MDA-MB-468 [4]
  IC50: 2.16 µM
SK-MEL-5
  inhibition of growth at 10 µM: 22.1%
A498
  inhibition of growth at 10 µM: 20.7%
RPMI-8226
  inhibition of growth at 10 µM: 25%
HOP-62
  inhibition of growth at 10 µM: < 20%
Bacillus subtilis
  diameter of the inhibition zone (DIZ): 28 mm
HL-60(TB)
  inhibition of growth at 10 µM: < 20%
UO-31 [5]
  Ratio IC50: 1.5 - 9
HOP-92
  inhibition of growth at 10 µM: 35.9%
SNB-75
  inhibition of growth at 10 µM: 29.9%
UO-31 [6]
  LC50: 15.9 µM
SF-539
  inhibition of growth at 10 µM: 22.5%
PC-3
  inhibition of growth at 10 µM: 24.9%
UO-31 [7]
  inhibition of growth at 10 µM: 37.4%
CCRF-CEM
  inhibition of growth at 10 µM: < 20%
NCI-H226
  inhibition of growth at 10 µM: < 20%
UO-31 [8]
  IC50: 4.92 µM
LOX IMVI
  inhibition of growth at 10 µM: 32.3%

## O=C(CN1CCN(c2cc3c(cc2F)c(=O)c(C(=O)O)cn3C2CC2)CC1)N/N=C/c1ccccc1O
UO-31 [9]
  Activity: 346.4 pg/mL
UO-31 [10]
  fold change (FC): 2.05
UO-31 [11]
  fold change (FC): 13.9
UO-31 [12]
  Activity: 11.28%
Escherichia coli
  diameter of the inhibition zone (DIZ): 16 mm
UO-31 [13]
  Activity: 22.02%
DNA topoisomerase 2-beta [14]
  Ratio IC50: 1.5
Pseudomonas aeruginosa
  diameter of the inhibition zone (DIZ): 17 mm
Staphylococcus aureus
  diameter of the inhibition zone (DIZ): 15 mm
UO-31 [15]
  Activity: 91.8%
DNA topoisomerase 2-beta [16]
  IC50: 0.58 µM
UO-31 [17]
  Activity: 59.87%
UO-31 [18]
  Activity: 0.87%
Bacillus subtilis
  diameter of the inhibition zone (DIZ): 18 mm
UO-31 [5]
  Ratio IC50: 1.5 - 9
UO-31 [6]
  LC50: 15.2 µM
DNA topoisomerase 2-beta [19]
  Ratio IC50: 6
DNA topoisomerase 2-beta [20]
  Ratio IC50: 5
UO-31 [21]
  Activity: 3.32%
UO-31 [22]
  Activity: 6.83%
UO-31 [8]
  IC50: 0.75 µM
UO-31 [23]
  Activity: 2.64%
